US20020137929A1, “1 - (3-heterocyclylphenyl) isothiourea, -isourea, -guanidine and -amidine herbicidal agents” (Intellectual Property Department, BASF Aktiengesellschaft, priority 1998, published 2002)

Legend:
[1] = test system: GLXMAW (Soybean, Williams); experiment: Postemergence herbicidal evaluation; type: in vivo, Glycine max, (L.) Merr. cv Williams; settings: postemergence
In short: (§1)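 Each compound, dispersed in an acetone/water mix (50/50) carrying 0.5% TWEEN 20, is nozzle-sprayed at 40 psi on approximately two-week-old seedlings at about 0.0156–0.500 kg/ha. Plants are assessed 4–5 weeks afterward on a 0–9 scale relative to control; duplicate tests are averaged.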

[2] = test system: CHEAL (Lambsquarters, Common); experiment: Postemergence herbicidal evaluation; type: in vivo, Chenopodium album; settings: postemergence
In short: as §1

SETVI (Foxtail, Green) [3] = experiment: Preemergence herbicidal evaluation; type: in vivo, Setaria viridis; settings: rated 4-5 weeks after treatment
In short: (§2)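 Steps: mix seeds into potting soil; plant atop ~1 inch soil; spray compound in aqueous acetone (~0.0156-0.500 kg/ha equivalent); maintain in greenhouse with watering; rate visually 0-9 versus control at 4-5 weeks.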

ABUTH (Velvetleaf) = experiment: Preemergence herbicidal evaluation; type: in vivo, Abutilon theophrasti; settings: rated 4-5 weeks after treatment
In short: as §2

AMBEL (Ragweed, Common) [4] = experiment: Postemergence herbicidal evaluation; type: in vivo, Ambrosia artemisifolia; settings: postemergence
In short: as §1

CASOB (Sicklepod) = experiment: Preemergence herbicidal evaluation; type: in vivo, Cassia obtusifolia; settings: rated 4-5 weeks after treatment
In short: as §2

[5] = test system: IPOHE (Morningglory, Ivyleaf); experiment: Preemergence herbicidal evaluation; type: in vivo, Ipomoea hederacea; settings: rated 4-5 weeks after treatment
In short: as §2

AMBEL (Ragweed, Common) [6] = experiment: Preemergence herbicidal evaluation; type: in vivo, Ambrosia artemisifolia; settings: rated 4-5 weeks after treatment
In short: as §2

SETVI (Foxtail, Green) [7] = experiment: Postemergence herbicidal evaluation; type: in vivo, Setaria viridis; settings: postemergence
In short: as §1

ECHCG (Barnyardgrass) = experiment: Preemergence herbicidal evaluation; type: in vivo, Echinochloa crus-galli; settings: rated 4-5 weeks after treatment
In short: as §2

CYPIR (Rice Flatsedge) = experiment: Preemergence weed control under flooded paddy conditions; type: in vivo, Cyperus iria; settings: rated 3-4 weeks after treatment
In short: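 First, seeds or propagules go into the top 0.5 cm of silt loam; next, water is held 1.5 to 3 cm over the soil; then compound (50/50 acetone/water) is pipetted into it at about 0.0313 to 0.500 kg/ha; finally plants are rated visually 0-9 after three to four weeks.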

ORYSAT (Rice, Tebonnet) = experiment: Postemergence herbicidal evaluation; type: in vivo, Oryza sativa, (L.) Tebonnet; settings: postemergence
In short: as §1

[8] = test system: IPOHE (Morningglory, Ivyleaf); experiment: Postemergence herbicidal evaluation; type: in vivo, Ipomoea hederacea; settings: postemergence
In short: as §1

GALAP (Galium) = experiment: Preemergence herbicidal evaluation; type: in vivo, Galium aparine; settings: rated 4-5 weeks after treatment
In short: as §2

[9] = test system: CHEAL (Lambsquarters, Common); experiment: Preemergence herbicidal evaluation; type: in vivo, Chenopodium album; settings: rated 4-5 weeks after treatment
In short: as §2

ZEAMX (Corn, Field) = experiment: Preemergence herbicidal evaluation; type: in vivo, Zea mays; settings: rated 4-5 weeks after treatment
In short: as §2

CCOC(=O)CN1C(=O)C(Cc2ccccc2OCC(=O)O)S/C1=N/c1cc(-n2c(=O)cc(C(F)(F)F)n(C)c2=O)c(F)cc1Cl (stereo not drawn) [Compound 113, 5-[o-(Carboxymethoxy)benzyl]-2-{{2-chloro-5-[3,6-dihydro-3-methyl-2,6-dioxo-4-(trifluoromethyl)-1(2H)-pyrimidinyl]-4-fluorophenyl}imino}-4-oxo-3-thiazolidineacetic acid, 3-ethyl ester]
Herbicidal rating GLXMAW ([1]; rate 0.0158 kg/ha): 4.5 | Herbicidal rating GLXMAW ([1]; rate 0.0315 kg/ha): 5.5 | Herbicidal rating GLXMAW ([1]; rate 0.0630 kg/ha): 5.5 | Herbicidal rating CHEAL ([2]; rate 0.0158 kg/ha): 5.0 | Herbicidal rating CHEAL ([2]; rate 0.0315 kg/ha): 4.0 | Herbicidal rating CHEAL ([2]; rate 0.0630 kg/ha): 7.0 | Preemergence herbicidal rating SETVI (SETVI (Foxtail, Green) [3]; rate 0.0156 kg/ha): 0.0 | Preemergence herbicidal rating SETVI (SETVI (Foxtail, Green) [3]; rate 0.0313 kg/ha): 0.0 | Preemergence herbicidal rating SETVI (SETVI (Foxtail, Green) [3]; rate 0.0625 kg/ha): 0.0 | Preemergence herbicidal rating SETVI (SETVI (Foxtail, Green) [3]; rate 0.1250 kg/ha): 0.0 | Preemergence herbicidal rating SETVI (SETVI (Foxtail, Green) [3]; rate 0.2500 kg/ha): 1.0 | Preemergence herbicidal rating ABUTH (ABUTH (Velvetleaf); rate 0.0156 kg/ha): 0.0 | Preemergence herbicidal rating ABUTH (ABUTH (Velvetleaf); rate 0.0313 kg/ha): 1.0 | Preemergence herbicidal rating ABUTH (ABUTH (Velvetleaf); rate 0.0625 kg/ha): 1.0 | Preemergence herbicidal rating ABUTH (ABUTH (Velvetleaf); rate 0.1250 kg/ha): 9.0 | Preemergence herbicidal rating ABUTH (ABUTH (Velvetleaf); rate 0.2500 kg/ha): 9.0 | Herbicidal rating AMBEL (AMBEL (Ragweed, Common) [4]; rate 0.0158 kg/ha): 5.0 | Herbicidal rating AMBEL (AMBEL (Ragweed, Common) [4]; rate 0.0315 kg/ha): 9.0 | Herbicidal rating AMBEL (AMBEL (Ragweed, Common) [4]; rate 0.0630 kg/ha): 9.0 | Preemergence herbicidal rating CASOB (CASOB (Sicklepod); rate 0.0156 kg/ha): 0.0 | Preemergence herbicidal rating CASOB (CASOB (Sicklepod); rate 0.0313 kg/ha): 0.0 | Preemergence herbicidal rating CASOB (CASOB (Sicklepod); rate 0.0625 kg/ha): 0.0 | Preemergence herbicidal rating CASOB (CASOB (Sicklepod); rate 0.1250 kg/ha): 0.0 | Preemergence herbicidal rating CASOB (CASOB (Sicklepod); rate 0.2500 kg/ha): 0.0 | Preemergence herbicidal rating IPOHE ([5]; rate 0.0156 kg/ha): 0.0 | Preemergence herbicidal rating IPOHE ([5]; rate 0.0313 kg/ha): 0.0 | Preemergence herbicidal rating IPOHE ([5]; rate 0.0625 kg/ha): 0.0 | Preemergence herbicidal rating IPOHE ([5]; rate 0.1250 kg/ha): 0.0 | Preemergence herbicidal rating IPOHE ([5]; rate 0.2500 kg/ha): 1.0 | Preemergence herbicidal rating AMBEL (AMBEL (Ragweed, Common) [6]; rate 0.0156 kg/ha): 0.0 | Preemergence herbicidal rating AMBEL (AMBEL (Ragweed, Common) [6]; rate 0.0313 kg/ha): 0.0 | Preemergence herbicidal rating AMBEL (AMBEL (Ragweed, Common) [6]; rate 0.0625 kg/ha): 0.0 | Preemergence herbicidal rating AMBEL (AMBEL (Ragweed, Common) [6]; rate 0.1250 kg/ha): 0.0 | Preemergence herbicidal rating AMBEL (AMBEL (Ragweed, Common) [6]; rate 0.2500 kg/ha): 2.0 | Herbicidal rating SETVI (SETVI (Foxtail, Green) [7]; rate 0.0158 kg/ha): 3.0 | Herbicidal rating SETVI (SETVI (Foxtail, Green) [7]; rate 0.0630 kg/ha): 3.0 | Preemergence herbicidal rating ECHCG (ECHCG (Barnyardgrass); rate 0.0156 kg/ha): 0.0 | Preemergence herbicidal rating ECHCG (ECHCG (Barnyardgrass); rate 0.0313 kg/ha): 0.0 | Preemergence herbicidal rating ECHCG (ECHCG (Barnyardgrass); rate 0.0625 kg/ha): 0.0 | Preemergence herbicidal rating ECHCG (ECHCG (Barnyardgrass); rate 0.1250 kg/ha): 0.0 | Preemergence herbicidal rating ECHCG (ECHCG (Barnyardgrass); rate 0.2500 kg/ha): 0.0 | CYPIR herbicidal effect rating (CYPIR (Rice Flatsedge); 0.0313 kg/ha): 3.0 | CYPIR herbicidal effect rating (CYPIR (Rice Flatsedge); 0.0625 kg/ha): 5.0 | CYPIR herbicidal effect rating (CYPIR (Rice Flatsedge); 0.1250 kg/ha): 5.0 | CYPIR herbicidal effect rating (CYPIR (Rice Flatsedge); 0.2500 kg/ha): 6.0 | Herbicidal rating ORYSAT (ORYSAT (Rice, Tebonnet); rate 0.0158 kg/ha): 2.0 | Herbicidal rating ORYSAT (ORYSAT (Rice, Tebonnet); rate 0.0315 kg/ha): 2.0 | Herbicidal rating ORYSAT (ORYSAT (Rice, Tebonnet); rate 0.0630 kg/ha): 2.5 | Herbicidal rating IPOHE ([8]; rate 0.0158 kg/ha): 7.0 | Herbicidal rating IPOHE ([8]; rate 0.0315 kg/ha): 9.0 | Herbicidal rating IPOHE ([8]; rate 0.0630 kg/ha): 9.0 | Preemergence herbicidal rating GALAP (GALAP (Galium); rate 0.0156 kg/ha): 0.0 | Preemergence herbicidal rating GALAP (GALAP (Galium); rate 0.0313 kg/ha): 0.0 | Preemergence herbicidal rating GALAP (GALAP (Galium); rate 0.0625 kg/ha): 0.0 | Preemergence herbicidal rating GALAP (GALAP (Galium); rate 0.1250 kg/ha): 1.0 | Preemergence herbicidal rating GALAP (GALAP (Galium); rate 0.2500 kg/ha): 3.0 | Preemergence herbicidal rating CHEAL ([9]; rate 0.0156 kg/ha): 6.0 | Preemergence herbicidal rating CHEAL ([9]; rate 0.0313 kg/ha): 7.0 | Preemergence herbicidal rating CHEAL ([9]; rate 0.0625 kg/ha): 0.0 | Preemergence herbicidal rating CHEAL ([9]; rate 0.1250 kg/ha): 9.0 | Preemergence herbicidal rating CHEAL ([9]; rate 0.2500 kg/ha): 9.0 | Preemergence herbicidal rating ZEAMX (ZEAMX (Corn, Field); rate 0.0156 kg/ha): 0.0 | Preemergence herbicidal rating ZEAMX (ZEAMX (Corn, Field); rate 0.0313 kg/ha): 1.0 | Preemergence herbicidal rating ZEAMX (ZEAMX (Corn, Field); rate 0.0625 kg/ha): 0.0 | Preemergence herbicidal rating ZEAMX (ZEAMX (Corn, Field); rate 0.1250 kg/ha): 0.0 | Preemergence herbicidal rating ZEAMX (ZEAMX (Corn, Field); rate 0.2500 kg/ha): 1.0
